According to patent US9474790B2, “Stable, protracted GLP-1/glucagon receptor co-agonists for medical use” (Novo Nordisk A/S, priority 2013, dated 2016):
Numbered stars: 1 amine (or outer) side, 2 acyl side, 3 side chain; on linkers, the order of the positions; unused ones are H or OH. Bridge positions count the residues as written; N and C are the ends. Square brackets hold non-standard residues; d marks the D form. Side chains are listed from the residue outwards. Peptide text beside a SMILES is read from it. I, II: the chains in the order shown. * marks the point of attachment. C18 diacid = O=C(O)CCCCCCCCCCCCCCCCC(=O)*; γGlu = O=C(O)[C@H](CCC(=O)[*:2])N[*:1]; Ac4c = NC1(C(=O)O)CCC1; AEEA = NCCOCCOCC(=O)O; Aib = CC(C)(N)C(=O)O

Columns and labels:
[1] = molecular target: T1, human glucagon receptor (Homo sapiens, UniProt P47871); assay: Glucagon receptor potency, CRE luciferase reporter gene assay in BHK cells; type: cell-based; details: BHK cells expressing human glucagon receptor, read-out: EC50 GlucR
T1 construct: expressed in transfected cells; host or cells: BHK cells (parent BHK570, CRE luciferase clone BHK/KZ10-20-48), clone pLJ6'-4-25
T1 sequence (P47871 26-477): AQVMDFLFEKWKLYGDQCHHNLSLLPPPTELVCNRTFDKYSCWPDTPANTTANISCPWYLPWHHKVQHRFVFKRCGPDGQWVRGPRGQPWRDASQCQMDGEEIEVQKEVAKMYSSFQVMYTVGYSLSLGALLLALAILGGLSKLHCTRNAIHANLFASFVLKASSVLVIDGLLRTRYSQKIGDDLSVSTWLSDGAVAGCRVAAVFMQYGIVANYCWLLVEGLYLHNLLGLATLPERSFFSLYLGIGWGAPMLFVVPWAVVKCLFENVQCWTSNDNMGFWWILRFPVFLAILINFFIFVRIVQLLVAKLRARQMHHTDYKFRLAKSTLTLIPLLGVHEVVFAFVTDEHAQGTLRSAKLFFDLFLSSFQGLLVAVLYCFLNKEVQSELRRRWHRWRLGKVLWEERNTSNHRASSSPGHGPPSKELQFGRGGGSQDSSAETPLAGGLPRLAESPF
In short: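 Stably transfected BHK cells (BHK570 background) expressing human glucagon receptor with CRE-firefly luciferase reporter, 5×10EE3 cells/well in DMEM/HEPES with 2% ovalbumin and 0.2% Pluronic F-68. Compounds 1×10EE-13 to 1×10EE-6 M final, 3 h at 37 °C; luminescence read, EC50 from four-parameter fit, in pM.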

[2] = molecular target: T2, human GLP-1 receptor (Homo sapiens, UniProt P43220); assay: GLP-1 receptor potency, CRE luciferase reporter gene assay in BHK cells; type: cell-based; details: BHK cells expressing human GLP-1 receptor, read-out: EC50 GLP-1R
T2 construct: expressed in transfected cells; host or cells: BHK cells (parent BHKTS13), clone FCW467-12A/KZ10-1, with CRE luciferase
T2 sequence (P43220 24-463): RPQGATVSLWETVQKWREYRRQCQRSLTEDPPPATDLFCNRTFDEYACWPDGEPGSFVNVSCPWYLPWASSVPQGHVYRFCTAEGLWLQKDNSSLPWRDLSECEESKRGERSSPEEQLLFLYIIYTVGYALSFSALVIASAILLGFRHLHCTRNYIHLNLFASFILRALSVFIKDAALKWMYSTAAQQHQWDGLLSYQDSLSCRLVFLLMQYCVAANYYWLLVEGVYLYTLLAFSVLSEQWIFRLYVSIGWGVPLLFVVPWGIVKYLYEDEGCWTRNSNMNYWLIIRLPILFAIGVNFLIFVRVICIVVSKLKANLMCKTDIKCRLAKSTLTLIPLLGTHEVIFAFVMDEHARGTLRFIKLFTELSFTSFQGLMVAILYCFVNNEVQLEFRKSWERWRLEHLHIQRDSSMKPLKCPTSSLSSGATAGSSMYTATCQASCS
In short: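 BHK cells stably expressing human GLP-1 receptor with CRE-luciferase reporter, 5×10EE3 cells/well in phenol red-free DMEM with 10 mM Hepes, 2% ovalbumin, 0.2% Pluronic F-68. Compounds at final 1×10EE-6 to 1×10EE-13 M, 3 h at 37° C; steadylite luminescence; EC50 by four-parameter fit, in pM.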

| EC50 [1] | EC50 [2] | Compound |
| --- | --- | --- |
| 0.0773 nM | 0.0221 nM | CC(C)C[C@H](NC(=O)[C@H](Cc1ccc(O)cc1)NC(=O)[C@H](CCCCN)NC(=O)[C@H](CO)NC(=O)[C@H](CC(C)C)NC(=O)[C@H](CC(=O)O)NC(=O)[C@H](CO)NC(=O)[C@@H](NC(=O)[C@H](Cc1ccccc1)NC(=O)[C@@H](NC(=O)CNC(=O)[C@H](CCC(N)=O)NC(=O)C(C)(C)NC(=O)[C@@H](N)Cc1c[nH]cn1)[C@@H](C)O)[C@@H](C)O)C(=O)N[C@@H](CCC(=O)O)C(=O)N[C@@H](CO)C(=O)N[C@@H](CCCNC(=N)N)C(=O)N[C@@H](CCCNC(=N)N)C(=O)N[C@@H](C)C(=O)N[C@@H](CCCNC(=N)N)C(=O)N[C@@H](CCC(=O)O)C(=O)N[C@@H](Cc1ccccc1)C(=O)N[C@H](C(=O)N[C@@H](CCC(N)=O)C(=O)N[C@@H](Cc1c[nH]c2ccccc12)C(=O)N[C@@H](CC(C)C)C(=O)N[C@@H](CC(C)C)C(=O)N[C@@H](CCCCNC(=O)CC[C@H](NC(=O)CC[C@H](NC(=O)COCCOCCNC(=O)COCCOCCNC(=O)CC[C@H](NC(=O)CCCCCCCCCCCCCCCCC(=O)O)C(=O)O)C(=O)O)C(=O)O)C(=O)N[C@H](C(N)=O)[C@@H](C)O)C(C)C [Example 23, N^ε28-[(4S)-4-carboxy-4-[[(4S)-4-carboxy-4-[[2-[2-[2-[[2-[2-[2-[[(4S)-4-carboxy-4-(17-carboxyheptadecanoylamino)butanoyl]amino]ethoxy]ethoxy]acetyl]amino]ethoxy]ethoxy]acetyl]amino]butanoyl]amino]butanoyl]-[Aib2,Leu10,Glu15,Arg20,Glu21,Leu27,Lys28]-Glucagon amide] (H-H[Aib]QGTFTSDLSKYLESRRAREFVQWLLK([γGlu-γGlu-AEEA-AEEA-γGlu-C18 diacid])T-NH2; N-terminus assumed) |
| 0.0029 nM | 0.0147 nM | CC(C)C[C@H](NC(=O)[C@H](Cc1ccc(O)cc1)NC(=O)[C@H](CCCCN)NC(=O)[C@H](CO)NC(=O)[C@H](CC(C)C)NC(=O)[C@H](CC(=O)O)NC(=O)[C@H](CO)NC(=O)[C@@H](NC(=O)[C@H](Cc1ccccc1)NC(=O)[C@@H](NC(=O)CNC(=O)[C@H](Cc1c[nH]cn1)NC(=O)C(C)(C)NC(=O)[C@@H](N)Cc1c[nH]cn1)[C@@H](C)O)[C@@H](C)O)C(=O)N[C@@H](CCC(=O)O)C(=O)N[C@@H](CO)C(=O)N[C@@H](CCCCN)C(=O)N[C@@H](CCCNC(=N)N)C(=O)N[C@@H](C)C(=O)N[C@@H](CCCNC(=N)N)C(=O)N[C@@H](CCC(=O)O)C(=O)N[C@@H](Cc1ccccc1)C(=O)N[C@H](C(=O)N[C@@H](CCC(N)=O)C(=O)N[C@@H](Cc1c[nH]c2ccccc12)C(=O)N[C@@H](CC(C)C)C(=O)N[C@@H](CC(C)C)C(=O)N[C@@H](CCCCNC(=O)CC[C@H](NC(=O)CC[C@H](NC(=O)CC[C@H](NC(=O)CCCCCCCCCCCCCCCCC(=O)O)C(=O)O)C(=O)O)C(=O)O)C(=O)N[C@H](C(N)=O)[C@@H](C)O)C(C)C [Example 34, N^ε28-[(4S)-4-carboxy-4-[[(4S)-4-carboxy-4-[[(4S)-4-carboxy-4-(17-carboxyheptadecanoylamino)butanoyl]amino]butanoyl]amino]butanoyl]-[Aib2,His3,Leu10,Glu15,Lys17,Arg20,Glu21,Leu27,Lys28]-Glucagon amide] (H-H[Aib]HGTFTSDLSKYLESKRAREFVQWLLK([γGlu-γGlu-γGlu-C18 diacid])T-NH2; N-terminus assumed) |
| 0.004 nM | 0.002 nM | CC(C)C[C@H](NC(=O)[C@H](Cc1ccc(O)cc1)NC(=O)[C@H](CCCCN)NC(=O)[C@H](CO)NC(=O)[C@H](CC(C)C)NC(=O)[C@H](CC(=O)O)NC(=O)[C@H](CO)NC(=O)[C@@H](NC(=O)[C@H](Cc1ccccc1)NC(=O)[C@@H](NC(=O)CNC(=O)[C@H](CCC(N)=O)NC(=O)C1(NC(=O)[C@@H](N)Cc2c[nH]cn2)CCC1)[C@@H](C)O)[C@@H](C)O)C(=O)N[C@@H](CCC(=O)O)C(=O)N[C@@H](CO)C(=O)N[C@@H](CCCCN)C(=O)N[C@@H](CCCNC(=N)N)C(=O)N[C@@H](C)C(=O)N[C@@H](CCCNC(=N)N)C(=O)N[C@@H](CCC(=O)O)C(=O)N[C@@H](Cc1ccccc1)C(=O)N[C@H](C(=O)N[C@@H](CCC(N)=O)C(=O)N[C@@H](Cc1c[nH]c2ccccc12)C(=O)N[C@@H](CC(C)C)C(=O)N[C@@H](CC(C)C)C(=O)N[C@@H](CCCCNC(=O)CNC(=O)[C@H](CO)NC(=O)[C@H](CCC(=O)O)NC(=O)CNC(=O)[C@H](CO)NC(=O)CC[C@H](NC(=O)CC[C@H](NC(=O)CCCCCCCCCCCCCCCCC(=O)O)C(=O)O)C(=O)O)C(=O)N[C@H](C(N)=O)[C@@H](C)O)C(C)C [Example 36, N^ε28-[2-[[(2S)-2-[[(2S)-4-carboxy-2-[[2-[[(2S)-2-[[(4S)-4-carboxy-4-[[(4S)-4-carboxy-4-(17-carboxyheptadecanoylamino)butanoyl]amino]butanoyl]amino]-3-hydroxypropanoyl]amino]acetyl]amino]butanoyl]amino]-3-hydroxypropanoyl]amino]acetyl]-[Acb2,Leu10,Glu15,Lys17, Arg20,Glu21,Leu27,Lys28]-Glucagon amide] (I: H-H[Ac4c]QGTFTSDLSKYLESKRAREFVQWLLKT-NH2 / II: {C18 diacid-γGlu-γGlu}-SGESG; amide I:28-II:C; N-terminus assumed) |
| 0.016 nM | – | CC(C)C[C@H](NC(=O)[C@H](CC(=O)O)NC(=O)[C@H](CC(C)C)NC(=O)[C@H](Cc1ccc(O)cc1)NC(=O)[C@H](CCCNC(=N)N)NC(=O)[C@H](CO)NC(=O)[C@H](CC(C)C)NC(=O)[C@H](CC(=O)O)NC(=O)[C@H](CO)NC(=O)[C@@H](NC(=O)[C@H](Cc1ccccc1)NC(=O)[C@@H](NC(=O)CNC(=O)[C@H](CCC(N)=O)NC(=O)C1(NC(=O)[C@@H](N)Cc2c[nH]cn2)CCC1)[C@@H](C)O)[C@@H](C)O)C(=O)N[C@@H](CCCNC(=N)N)C(=O)N[C@@H](CCCNC(=N)N)C(=O)N[C@@H](C)C(=O)N[C@@H](CCCNC(=N)N)C(=O)N[C@@H](CC(=O)O)C(=O)N[C@@H](Cc1ccccc1)C(=O)N[C@H](C(=O)N[C@@H](CCC(N)=O)C(=O)N[C@@H](Cc1c[nH]c2ccccc12)C(=O)N[C@@H](CC(C)C)C(=O)N[C@@H](CC(C)C)C(=O)N[C@@H](CCCCNC(=O)CC[C@H](NC(=O)CC[C@H](NC(=O)COCCOCCNC(=O)COCCOCCNC(=O)CC[C@H](NC(=O)CC[C@H](NC(=O)CCCCCCCCCCCCCCCCC(=O)O)C(=O)O)C(=O)O)C(=O)O)C(=O)O)C(=O)N[C@H](C(N)=O)[C@@H](C)O)C(C)C [Example 46, N^ε28-[(4S)-4-carboxy-4-[[(4S)-4-carboxy-4-[[2-[2-[2-[[2-[2-[2-[[(4S)-4-carboxy-4-[[(4S)-4-carboxy-4-(17-carboxyheptadecanoylamino)butanoyl]amino]butanoyl]amino]ethoxy]ethoxy]acetyl]amino]ethoxy]ethoxy]acetyl]amino]butanoyl]amino]butanoyl]-[Acb2,Leu10,Arg12,Leu16,Arg20,Leu27,Lys28]-Glucagon amide] (H-H[Ac4c]QGTFTSDLSRYLDLRRARDFVQWLLK([γGlu-γGlu-AEEA-AEEA-γGlu-γGlu-C18 diacid])T-NH2; N-terminus assumed) |
